The values that follow are results of earlier work, collected in patent US8048872B2, “Treatment of hyperproliferative diseases with vinca alkaloid N-oxide and analogs” (Stat of Oregon Acting by and Through The Oregon State Board …, priority 2006, dated 2011).

The conditions of the data set: cited from earlier work.
Where [1] appears, read: melanoma, 200 mg/m^2/d PO days 1-5, every 28 days, Grade III-IV.
Where [2] appears, read: melanoma, 200 mg/m^2/d PO days 1-5, every 28 days.
The mark [3] stands for this setting: acute promyelocytic leukemia patients.

Where two headings read alike, the source gives them in different places.

With `O=c1[nH]cc(F)c(=O)[nH]1` [5-Fluorouracil], where the note is “human, in vivo, iv”, the Diarrhea entry is reported as “Diarrhea* 22%”, the “Hand-Foot Syndrome” value is “Syndrome* 14%”, the “Leukopenia/Neutropenia Toxicity” value is reported as “Grade III-IV 0%” and the Stomatitis entry was “Stomatitis* 31%”.
For the compound `CC1=C(/C=C/C(C)=C/C=C/C(C)=C/C(=O)O)C(C)(C)CCC1` [ATRA], for the setting “Maintenance Therapy (n = 94)”, the Hepatotoxicity entry was “Hepatotoxicity 5.3%”, the Infection result is recorded as “Infection 7.4%”, the “Life-Threatening Toxicity” value is listed as “Toxicity 36%” and the Neurotoxicity entry was “Neurotoxicity 11.7%”.
For `CN(C)c1nc(N(C)C)nc(N(C)C)n1` [Altretamine], where the note is “human, in vivo, iv”, the “Anemia Grade III-IV” value is “Anemia Grade III-IV 2%”, the Fatigue result is recorded as “Fatigue 9%”, the Nausea entry is “Nausea 14%” and the Neurologic result is given as “Neurologic 2%”. Further, the Vomiting entry (human, in vivo, iv) is recorded as “Vomiting 12%”.
In the case of `O=NN(CCCl)C(=O)NCCCl` [BCNU (carmustine)], for the setting “Grade III-IV”, the Nausea/Vomiting result is given as “Nausea/Vomiting 5%” and the Thrombocytopenia result is given as “Thrombocytopenia 21%”. The Leukopenia result (Grade III) is “Grade III 4%”. Also, the Leukopenia entry (Grade IV) was “Grade IV 1%”.
`CCCCCOC(=O)Nc1nc(=O)n([C@@H]2O[C@H](C)[C@@H](O)[C@H]2O)cc1F` [Capecitabine]: under “human, in vivo, iv”, the Dehydration result was “Dehydration 4%”, the Fatigue entry was “Fatigue 7%”, the Hyperbilirubinemia is reported as 17.3% and the Hyperglycemia entry is recorded as “Hyperglycemia 8.7%”. Where the note is “human, in vivo, iv”, the “Leukopenia/Neutropenia Toxicity” value is listed as “Grade III-IV 3%”, the Nausea result is listed as “Nausea 4%”, the Stomatitis entry is “Stomatitis 3%” and the Vomiting entry was “Vomiting 4%”. Besides, the Leukopenia result (human, in vivo) is recorded as “Grade III 0.3%”.
For `N.N.[Cl][Pt][Cl]` [Cisplatin], where the note is “Grade III-IV”, the “Anemia Grade III-IV” value is reported as 11%, the Cardiovascular result is given as “Cardiovascular 2%”, the Leukopenia result is “Grade III-IV 7%” and the Neurologic entry is on record as “Neurologic 11%”. For the same compound, where the note is “Grade III-IV”, the “Neutropenic Fever” value is reported as “Neutropenic Fever <1%” and the Renal entry was “Renal 4%”. The Leukopenia result (Grade III) is “Grade III 18%”. For the same compound, where the note is “Grade IV”, the Leukopenia result was “Grade IV 3%”. For the same compound, the “Hearing Loss (clinical)” value (human, in vivo) is 12%.
Take `Nc1nc(Cl)nc2c1ncn2[C@H]1C[C@H](O)[C@@H](CO)O1` [Cladribine]: under “Grade III-IV”, the “Anemia Grade III-IV” value is recorded as 22%, the “Documented Infection” value is “Infections 13%”, the “Leukopenia/Neutropenia Toxicity” value is reported as “Grade III-IV 87%” and the “Neutropenic Fever” value was “Neutropenic Fever 42%”. Also, the Thrombocytopenia entry (Grade III-IV) is given as “Thrombocytopenia 20%”.
For `Nc1ccn([C@@H]2O[C@H](CO)[C@@H](O)[C@@H]2O)c(=O)n1` [Cytarabine], the “CNS Toxicities” value is, setting by setting: (human, in vivo, iv) “CNS Toxicities 12%”; (human, in vivo) “(32% with age >60 yrs)”.
For `CN(C)/N=N/c1[nH]cnc1C(N)=O` [Dacarbazine], under “human, in vivo, iv”, the “Anemia Grade III-IV” value is listed as “Anemia Grade III-IV 6%”, the “Anemia Grade IV” value is reported as “Anemia Grade IV 1%”, the “Asthenia (Grade III)” value is reported as “Asthenia (Grade III) 1%” and the “Constipation (Grade III)” value is listed as “(Grade III) 3%”. Under “human, in vivo, iv”, the Dyspnea entry was “Dyspnea 1%”, the “Fatigue (Grade III)” value was “Fatigue (Grade III) 2%”, the “Fever (Grade III)” value is “Fever (Grade III) 2%” and the “Headache (Grade III)” value was “Headache (Grade III) 1%”. Also, under “human, in vivo, iv”, the “Leukopenia without neutropenia Grade III” value was “Grade III 1%”, the “Nausea (Grade III)” value is on record as “Nausea (Grade III) 4%”, the Nausea/Vomiting result is recorded as “Nausea/Vomiting 5%” and the “Pain (Grade III)” value was “Pain (Grade III) 13%”. Where the note is “human, in vivo, iv”, the “Somnolence (Grade III)” value is on record as “(Grade III) 1%” and the “Vomiting (Grade III)” value was “Vomiting (Grade III) 4%”.
As for `CC(=O)O[C@@]12CO[C@@H]1C[C@H](O)[C@@]1(C)C(=O)[C@H](O)C3=C(C)[C@@H](OC(=O)[C@H](O)[C@@H](NC(=O)OC(C)(C)C)c4ccccc4)C[C@@](O)([C@@H](OC(=O)c4ccccc4)[C@H]21)C3(C)C` [Docetaxel], where the note is “Grade III-IV”, the Alopecia entry is “Alopecia 13%”, the Asthenia result is listed as “Asthenia 16%”, the Diarrhea entry is given as “Diarrhea 8%” and the Fatigue/Asthenia entry is recorded as “Fatigue/Asthenia 10%”. Moreover, where the note is “Grade III-IV”, the “Febrile Neutropenia” value is listed as “Febrile Neutropenia 33%”, the “Hypersensitivity Reaction” value is “Reactions 3%”, the “Leukopenia/Neutropenia Toxicity” value is recorded as “Grade III-IV 93%” and the Nausea entry is on record as “Nausea 5%”. For the setting “Grade III-IV”, the Nausea/Emesis result is “Nausea/Emesis 10%”, the Neuropathy entry was “Neuropathy 3%”, the Neurosensory result is listed as “Neurosensory 5%” and the “Neutropenic Fever” value is reported as “Neutropenic Fever 9%”. In addition, where the note is “Grade III-IV”, the “Severe Fluid Retention” value is listed as 8%, the Stomatitis entry is given as “Stomatitis 9%”, the Thrombocytopenia entry is “Thrombocytopenia 4%” and the Vomiting entry is “Vomiting 3%”. In addition, for the setting “Grade III”, the Granulocytopenia result was “Grade III 6%”, the Leukopenia result is on record as “Grade III 8%” and the Thrombocytopenia result is listed as “(Grade III) 6%”. Moreover, under “Grade IV”, the Granulocytopenia entry is “Grade IV 72%”. Moreover, the “Neutropenic Infection” value (human, in vivo, iv) is listed as “(Grade III-IV) 11%”.
On to `COc1cccc2c1C(=O)c1c(O)c3c(c(O)c1C2=O)C[C@@](O)(C(=O)CO)C[C@@H]3O[C@H]1C[C@H](N)[C@H](O)[C@H](C)O1` [Doxorubicin], for which, for the setting “human, in vivo, iv”, the Cardiotoxicity entry is recorded as “Cardiotoxicity 1%”, the Gastrointestinal entry is “Gastrointestinal 3%”, the Infection result is “Infection 3%” and the “Leukopenia/Neutropenia Toxicity” value is recorded as “Grade III-IV 8%”. Besides, where the note is “human, in vivo, iv”, the “Leukopenia/Neutropenia Toxicity Grade III-IV” value is reported as “Grade III-IV 51%”, the “Leukopenia/Neutropenia Toxicity Grade IV” value was “Grade IV 21%”, the Mucositis entry is “Mucositis 6%” and the Nausea/Vomiting result is “Nausea/Vomiting 13%”. Besides, the Thrombocytopenia result (human, in vivo, iv) was “Thrombocytopenia 2%”.
Consider `Nc1nc(F)nc2c1ncn2[C@@H]1O[C@H](CO)[C@@H](O)[C@@H]1O` [Fludarabine], for which, for the setting “Grade III-IV”, the Diarrhea result is on record as “Diarrhea 2%”, the Nausea result is recorded as “Nausea 3%”, the Neuropathy entry is “Neuropathy 4%” and the Stomatitis result is reported as “Stomatitis 2%”. Also, the Thrombocytopenia entry (Grade III-IV) is “Thrombocytopenia 25%”. Moreover, the Neutropenia entry (Grade IV (of cycles)) was “Neutropenia 56%”. In addition, under “human, in vivo”, the “Febrile Infection During Cycles 1-3” value was “Cycles 1-3 30%”.
Take `CN(Cc1cnc2nc(N)nc(N)c2n1)c1ccc(C(=O)N[C@@H](CCC(=O)O)C(=O)O)cc1` [Methotrexate]: under “human, in vivo”, the “Hepatotoxicity (Grade III)” value is reported as 24.4% (all ages) and the “Hepatotoxicity (Grade IV)” value is 2.4% (all ages).
As for `CC(=O)O[C@H]1C(=O)[C@@]2(C)[C@H]([C@H](OC(=O)c3ccccc3)[C@]3(O)C[C@H](OC(=O)[C@H](O)[C@@H](NC(=O)c4ccccc4)c4ccccc4)C(C)=C1C3(C)C)[C@]1(OC(C)=O)CO[C@@H]1C[C@@H]2O` [Paclitaxel], under “human, in vivo, iv”, the “Increased AST” value is “Increased AST 5%” and the “Leukopenia/Neutropenia Toxicity” value is on record as “Grade III-IV 23%”.
As to `Cn1nnc2c(C(N)=O)ncn2c1=O` [Temozolomide], where the note is “Grade III-IV”, the “Anemia Grade III-IV” value is “Anemia Grade III-IV 1%”, the Asthenia entry is given as “Asthenia 6%”, the Fatigue result is recorded as “Fatigue 5%” and the Fever entry is “Fever 2%”. For the same compound, under “Grade III-IV”, the Headache entry was “Headache 6%”, the Nausea entry is “Nausea 10%”, the Thrombocytopenia result was “Thrombocytopenia 6%” and the Vomiting entry is reported as “Vomiting 6%”. Besides, where the note is “grade not given”, the Leukopenia entry is on record as “Leukopenia 2%” and the Neutropenia result is given as “Neutropenia 2%”. Under setting [1], the Fever entry was “Fever 2%”, the Headache result is given as “Headache 6%”, the Thrombocytopenia entry was “Thrombocytopenia 7%” and the Vomiting result is “Vomiting 5%”. For the same compound, under setting [2], the “Anemia Grade III-IV” value was “Anemia Grade III-IV 2%”, the “Asthenia (Grade III)” value is “Asthenia (Grade III) 3%”, the “Constipation (Grade III)” value is “(Grade III) 3%” and the “Fatigue (Grade III)” value is “Fatigue (Grade III) 3%”. Under setting [2], the “Nausea (Grade III)” value is listed as “Nausea (Grade III) 4%”, the “Neutropenia Grade III” value is recorded as “Grade III 1%”, the “Neutropenia Grade IV” value is given as “Grade IV 2%” and the “Pain (Grade III)” value was “Pain (Grade III) 7%”.
Take `O=C1CCC(N2C(=O)c3ccccc3C2=O)C(=O)N1` (stereo not shown) [Thalidomide]: for the setting “human, in vivo”, the “Anemia Grade III-IV” value is reported as 3.6% and the Thrombocytopenia result is reported as “Thrombocytopenia 3.6%”.
As to `CC[C@@]1(O)C(=O)OCc2c1cc1n(c2=O)Cc2cc3c(CN(C)C)c(O)ccc3nc2-1` [Topotecan], for the setting “human, in vivo, iv”, the Anorexia result is recorded as “Anorexia 1%”, the Diarrhea result is listed as “Diarrhea 1%”, the Fatigue entry is recorded as “Fatigue 5%” and the “Neutropenic Sepsis” value is recorded as “Neutropenic Sepsis 5%”. Besides, under “human, in vivo, iv”, the Sepsis result is listed as “Sepsis 9%”, the “Severe Bleed” value was “Severe Bleed <1%” and the Stomatitis entry is recorded as “Stomatitis 2%”. Also, the “Leukopenia/Neutropenia Toxicity” value (human, in vivo) was “Grade III 15%”.
`CCC1=C[C@@H]2CN(C1)Cc1c([nH]c3ccccc13)[C@@](C(=O)OC)(c1cc3c(cc1OC)N(C)[C@H]1[C@@](O)(C(=O)OC)[C@H](OC(C)=O)[C@]4(CC)C=CCN5CC[C@]31[C@@H]54)C2` [Vinorelbine]: under “human, in vivo, iv”, the “Anemia Grade III-IV” value is listed as “Anemia Grade III-IV 5%”, the Constipation result is “Constipation 3%”, the Diarrhea is given as 4% and the Neurologic result is recorded as “Neurologic 9%”. Under “human, in vivo, iv”, the Neuropathy entry is “Neuropathy 1%”, the “Neutropenic Infection” value is reported as less than 1%, the “Neutropenic Sepsis” value is “Neutropenic Sepsis 3%” and the Stomatitis entry is reported as “Stomatitis <1%”. Moreover, the Thrombocytopenia entry (human, in vivo, iv) is “Thrombocytopenia 1%”.
For `CC1=C(/C=C/C(C)=C/C=C/C(C)=C/C(=O)O)C(C)(C)CCC1` [all-trans-retinoic acid, reference compound], under setting [3], the lethal pulmonary toxicity is on record as 2%, the life-threatening pulmonary toxicity is recorded as 11%, the “patients developing grade III or IV pulmonary toxicity (total)” value is listed as “Twenty” and the severe pulmonary toxicity was 7%.
